Laboratory results as given in the RepoRT retention time repository (doi:10.1016/j.aca.2011.12.065).
Structures can show the parent of a compound that is named as a salt.

What was measured:
[1] = RP, Waters ACQUITY UPLC BEH C18, 100 × 2.1 mm, 1.7 µm; A: water + 0.1% formic acid, pH 3; B: 80% acetonitrile + 20% acetone + 0.1% formic acid, pH 3; gradient (min/%B) 0/0 6/100; settings: stereoisomer not certain
[2] = RP, Waters ACQUITY UPLC HSS T3, 100 × 2.1 mm, 1.8 µm; A: water + 0.1% formic acid, pH 3; B: 30% methanol + 70% acetonitrile + 0.1% formic acid, pH 3; gradient (min/%B) 0.0/5 1.0/8 2.0/15 3.0/40 4.0/70 4.5/100 5.0/100 6.4/100 6.6/5.0 6.8/5.0 7.0/5.0; settings: stereoisomer not certain

SMILES | LC retention time [1] [min] | LC retention time [2] [min]
O=C(O)CCCCCC(=O)O [Pimelic acid] | 1.72 | 3.17
O=Cc1ccc(O)cc1 [4-hydroxybenzaldehyde] | 1.91 | 3.3
O=c1cc[nH]c(=O)[nH]1 [Uracil] | 0.752 | 0.628
O=C(O)CCCC(=O)O [Glutaric acid] | 1.37 | 1.32
CCCCCCCCCCCC(=O)OC(CC(=O)[O-])C[N+](C)(C)C (stereo not drawn) [lauroyl l-carnitine] | 3.38 | 4.2
O=C1CCCCN1 [delta-valerolactam] | 1.39 | 1.69
CCCCCCCCCCCCCCCC(=O)OCC(O)COP(=O)([O-])OCC[N+](C)(C)C (stereo not drawn) [lysoPC(16:0/0:0)] | 4.4 | 4.7
CC(C)(O)CC(=O)O [3-hydroxy-3-methyl butanoic acid] | 1.44 | 1.63
NCCS(=O)(=O)O [Taurine] | 0.556 | 0.47
NC(CCCCNCC(=O)O)C(=O)O (stereo not drawn) [cml] | 0.676 | 0.527
O=c1[nH]c(=O)c2[nH]c(=O)[nH]c2[nH]1 [Uric acid] | 0.752 | 0.618
CN(C)CC(=O)O [N,N-dimethylglycine] | 0.572 | 0.47
O=C(O)C1CCCN1 (stereo not drawn) [Proline] | 0.626 | 0.506
CC1(O)CCOC(=O)C1 (stereo not drawn) [Mevalonolactone] | 1.38 | 1.19
CC(CCC(=O)NCC(=O)O)C1CCC2C3CCC4CC(O)CCC4(C)C3CCC12C (stereo not drawn) [glycolithocholic acid] | 3.56 | 4.61
CC(=O)NC(CC(=O)O)C(=O)NC(CCC(=O)O)C(=O)O (stereo not drawn) [n-acetyl-asp-glu] | 1.28 | 0.863
CC(CCC(=O)NCC(=O)O)C1CCC2C3CCC4CC(O)CCC4(C)C3CC(O)C12C (stereo not drawn) [glycodeoxycholic acid] | 3.46 | 4.44
O=C(O)CCCCC(=O)O [Adipic acid] | 1.5 | 2.33
CCCCCCCCCCCC(=O)N(C)CC(=O)O [n-lauroylsarcosine] | 4.27 | 4.6
CC(C)(CO)C(O)C(=O)NCCC(=O)NCCSSCCNC(=O)CCNC(=O)C(O)C(C)(C)CO (stereo not drawn) [d-pantethine] | 1.87 | 3.44
COc1cc(C=O)ccc1O [vanillin] | 2.03 | 3.45
NCCCCC(N)C(=O)O (stereo not drawn) [l-lysine] | 0.51 | 0.404
NCCc1c[nH]c2ccccc12 [tryptamine hydrochloride] | 1.53 | 2.65

Results, then the compound that gave them:

LC retention time [1] [min] | LC retention time [2] [min] | SMILES
1.03 | 0.786 | Nc1c(O)cccc1C(=O)CC(N)C(=O)O (racemic) [3-hydroxy-dl-kynurenine]
3.94 | 4.62 | CC(CCC(=O)O)C1CCC2C3CCC4CC(O)CCC4(C)C3CC(O)C12C (stereo not drawn) [Deoxycholic acid]
0.676 | 0.527 | NC(CCCCNC(=O)CO)C(=O)O (stereo not drawn) [GALA ((2s)-2-amino-6-(2-hydroxy-acetylamino)-hexanoic acid)]
2.76 | 3.88 | O=c1c(O)c(-c2ccc(O)cc2)oc2cc(O)cc(O)c12 [kaempferol]
0.685 | 0.538 | Nc1ncnc2nc[nH]c12 [Adenine]
1.26 | 0.793 | CN1C(=O)CCC1c1cccnc1 (single isomer, unassigned; (-)) [(-)-Cotinine]
0.531 | 0.425 | Cn1cnc(C[C@H](N)C(=O)O)c1 [1-Methyl-L-Histidine]
1.53 | 2.68 | CC(=O)NC(Cc1ccc(O)cc1)C(=O)O (stereo not drawn) [n-acetyl-l-tyrosine]
3.46 | 4.23 | CC(CCC(=O)NCC(=O)O)C1CCC2C3C(O)CC4CC(O)CCC4(C)C3CCC12C (stereo not drawn) [glycochenodeoxycholic acid]
1.16 | 0.743 | O=c1[nH]cc(C2OC(CO)C(O)C2O)c(=O)[nH]1 (stereo not drawn)
1.37 | 1.54 | CC(O)C1NC(=O)C2CCCN2C1=O (stereo not drawn) [Cyclic(pro-thr)]
1.7 | 2.92 | OCC1OC(Oc2c[nH]c3ccccc23)C(O)C(O)C1O (stereo not drawn) [indoxyl beta-d-glucoside]
1.68 | 3.38 | Cc1cc2nc3c(=O)[nH]c(=O)nc-3n(CC(O)C(O)C(O)CO)c2cc1C (stereo not drawn) [Riboflavin]
2.08 | 3.49 | O=C(O)C(O)Cc1ccccc1 (stereo not drawn) [phenyllactic acid]
1.28 | 1.18 | Cc1cn(C2OC(CO)C(O)C2O)c(=O)nc1N (stereo not drawn) [5-methylcytidine]
0.749 | 0.533 | Nc1ccn(C2OC(CO)C(O)C2O)c(=O)n1 (stereo not drawn) [cytidine]

LC retention time [1] [min] | LC retention time [2] [min] | SMILES
1.78 | 3.17 | COc1cc(C(=O)O)ccc1O [Vanillic acid]
2.58 | 3.79 | CSCCC(NC(=O)Cc1ccccc1)C(=O)O (stereo not drawn) [N-phenylacetyl-methionine]
1.5 | 2.09 | Nc1ccc(C(=O)O)cc1 [paba]
1.26 | 1.18 | Nc1nc2c(ncn2C2OC(CO)C(O)C2O)c(=O)[nH]1 (stereo not drawn) [guanosine]
1.81 | 3.4 | COc1cc2c(CCNC(C)=O)c[nH]c2cc1O [6-hydroxymelatonin]
0.571 | 0.465 | OC1C(O)C(O)C(O)C(O)C1O (stereo not drawn) [myo-inositol]
1.17 | 0.688 | Cn1c[n+](C2OC(CO)C(O)C2O)c2nc(N)[nH]c(=O)c21 (stereo not drawn) [7-methylguanosine]
0.574 | 0.475 | CC(O)C(N)C(=O)O (stereo not drawn) [Threonine]
2.13 | 3.52 | O=C(O)C(O)Cc1c[nH]c2ccccc12 (racemic) [dl-3-indolelactic acid]
0.986 | 0.619 | Cn1c(=N)ccn(C2OC(CO)C(O)C2O)c1=O (stereo not drawn) [3-methylcytidine methosulfate]
1.43 | 2.31 | NC(CCCCn1c(C=O)ccc1CO)C(=O)O (stereo not drawn) [pyrraline]
1.68 | 2.86 | O=C(O)c1ccc2ccccc2n1 [quinaldic acid]
0.577 | 0.475 | NC(CCC(=O)O)C(=O)O (stereo not drawn) [glutamic acid]
1.45 | 2.56 | Cn1c(=O)[nH]c2ncn(C)c2c1=O [1,7-dimethylxanthine]
0.6 | 0.476 | OCC1OC(OC2C(CO)OC(O)C(O)C2O)C(O)C(O)C1O (stereo not drawn) [alfa-lactose monohydrate]
